Experimental findings from ChEMBL document CHEMBL3045350, “Inheritance of resistance to a new non-steroidal ecdysone agonist, fufenozide, in the diamondback moth, Plutella xylostella (Lepidoptera: Plutellidae)” (2010) are described below.

SMILES strings stand for the structures. ≈ marks a conversion by molar mass, not a printed value.

Assay type in all cases: functional
Experiment [1] deals with Plutella xylostella. In words: Insecticidal activity against backcrossed third-instar larvae of Plutella xylostella (diamondback moth) in cabbage leaf assessed as mortality after 96 hr by leaf dip method. As to conditions: foliar.
For experiment [2], the system named is Plutella xylostella. In words: Insecticidal activity against fufenozide-resistant 39th generation of third-instar larvae of Plutella xylostella (diamondback moth) in cabbage leaf assessed as mortality after 96 hr by leaf dip method. The following applies: foliar.
The subject of experiment [3] is Plutella xylostella. The experiment is described as follows: Resistant ratio, ratio of LC50 for F1 pooled generation of third-instar larvae of Plutella xylostella (diamondback moth) to LC50 for fufenozide-susceptible third-instar larvae of Plutella xylostella.
For experiment [4], the system named is Plutella xylostella. In words: Insecticidal activity against F1 generation of third-instar larvae of Plutella xylostella (diamondback moth) in cabbage leaf assessed as mortality after 96 hr by leaf dip method. As to conditions: foliar.
Experiment [5] has as its system Plutella xylostella. In words: Insecticidal activity against F1 pooled generation of third-instar larvae of Plutella xylostella (diamondback moth) in cabbage leaf assessed as mortality after 96 hr by leaf dip method. As to conditions: foliar.
In experiment [6] the test system is Plutella xylostella. The experiment is described as follows: Insecticidal activity against F'1 generation of third-instar larvae of Plutella xylostella (diamondback moth) in cabbage leaf assessed as mortality after 96 hr by leaf dip method. As to conditions: foliar.
Experiment [7] relates to Plutella xylostella. In words: Resistant ratio, ratio of LC50 for F2 generation of third-instar larvae of Plutella xylostella (diamondback moth) to LC50 for fufenozide-susceptible third-instar larvae of Plutella xylostella.
In experiment [8] the test system is Plutella xylostella. In words: Insecticidal activity against F2 generation of third-instar larvae of Plutella xylostella (diamondback moth) in cabbage leaf assessed as mortality after 96 hr by leaf dip method. As to conditions: foliar.
Experiment [9] deals with Plutella xylostella. In words: Insecticidal activity against fufenozide-susceptible third-instar larvae of Plutella xylostella (diamondback moth) in cabbage leaf assessed as mortality after 96 hr by leaf dip method. As to conditions: foliar.
Experiment [10] has as its system Plutella xylostella. The experiment is described as follows: Resistant ratio, ratio of LC50 for F1 generation of third-instar larvae of Plutella xylostella (diamondback moth) to LC50 for fufenozide-susceptible third-instar larvae of Plutella xylostella.
In experiment [11] the test system is Plutella xylostella. In words: Resistant ratio, ratio of LC50 for F'1 generation of third-instar larvae of Plutella xylostella (diamondback moth) to LC50 for fufenozide-susceptible third-instar larvae of Plutella xylostella.
In experiment [12] the test system is Plutella xylostella. The experiment is described as follows: Resistant ratio, ratio of LC50 for backcrossed third-instar larvae of Plutella xylostella (diamondback moth) to LC50 for fufenozide-susceptible third-instar larvae of Plutella xylostella.

What is called LC50 is the concentration lethal to half of the exposed cells or organisms. As to `Cc1cc(C)cc(C(=O)N(NC(=O)c2ccc3c(c2C)OC(C)C3)C(C)(C)C)c1` (configuration not stated) [FUXIAN], the LC50 with Plutella xylostella [1] is 6.93 µg/mL (≈ 17.6 µM); in the experiment with Plutella xylostella [2], 1480 µM; with Plutella xylostella [4] it was 5.22 µg/mL (≈ 13.2 µM); in the experiment with Plutella xylostella [5] it was 5.82 µg/mL (≈ 14.8 µM); with Plutella xylostella [6], 6.22 µg/mL (≈ 15.8 µM); in the experiment on Plutella xylostella [8], 5 µg/mL (≈ 12.7 µM). The LC50 in the experiment with Plutella xylostella [9] was 2.23 µg/mL (≈ 5.66 µM). Moreover, the RatioLC50 is 2.61 with Plutella xylostella [3]; 2.24 with Plutella xylostella [7]; 1.76 in the experiment with Plutella xylostella [10]; 2.09 with Plutella xylostella [11]; 2.33 in the experiment on Plutella xylostella [12].
